Measured values published in BindingDB's records for patent US11401286 (Tetra Discovery Partners, LLC, 2022).

What was measured:
[1] = target: Isoform 7 of cAMP-specific 3',5'-cyclic phosphodiesterase 4D (Human, UniProt Q08499); experiment: Kinetic Assay
[2] = target: cAMP-specific 3',5'-cyclic phosphodiesterase 4B [S133D] (Human, UniProt Q07343, S133D); experiment: Kinetic Assay
Chain of cAMP-specific 3',5'-cyclic phosphodiesterase 4B [S133D] (Q07343 whole entry S133D): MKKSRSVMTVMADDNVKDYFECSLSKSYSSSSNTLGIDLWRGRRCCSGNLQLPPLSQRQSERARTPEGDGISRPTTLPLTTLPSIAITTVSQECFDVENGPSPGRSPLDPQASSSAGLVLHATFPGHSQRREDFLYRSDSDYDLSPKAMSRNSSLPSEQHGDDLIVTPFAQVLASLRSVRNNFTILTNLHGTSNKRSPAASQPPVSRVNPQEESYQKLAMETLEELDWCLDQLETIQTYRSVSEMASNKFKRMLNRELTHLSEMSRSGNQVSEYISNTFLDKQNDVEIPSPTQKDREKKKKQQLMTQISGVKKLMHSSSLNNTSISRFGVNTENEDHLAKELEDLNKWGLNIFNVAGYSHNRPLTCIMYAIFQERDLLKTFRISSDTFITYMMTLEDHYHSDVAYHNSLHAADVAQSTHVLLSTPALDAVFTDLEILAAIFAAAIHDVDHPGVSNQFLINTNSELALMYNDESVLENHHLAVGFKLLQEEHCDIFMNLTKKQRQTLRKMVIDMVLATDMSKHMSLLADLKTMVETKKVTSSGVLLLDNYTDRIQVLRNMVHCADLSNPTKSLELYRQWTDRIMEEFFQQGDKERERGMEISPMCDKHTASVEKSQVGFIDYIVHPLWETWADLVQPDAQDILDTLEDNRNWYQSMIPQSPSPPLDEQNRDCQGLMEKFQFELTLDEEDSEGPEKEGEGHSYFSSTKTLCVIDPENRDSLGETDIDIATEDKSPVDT

Chain of Isoform 7 of cAMP-specific 3',5'-cyclic phosphodiesterase 4D (Q08499 as listed by the source): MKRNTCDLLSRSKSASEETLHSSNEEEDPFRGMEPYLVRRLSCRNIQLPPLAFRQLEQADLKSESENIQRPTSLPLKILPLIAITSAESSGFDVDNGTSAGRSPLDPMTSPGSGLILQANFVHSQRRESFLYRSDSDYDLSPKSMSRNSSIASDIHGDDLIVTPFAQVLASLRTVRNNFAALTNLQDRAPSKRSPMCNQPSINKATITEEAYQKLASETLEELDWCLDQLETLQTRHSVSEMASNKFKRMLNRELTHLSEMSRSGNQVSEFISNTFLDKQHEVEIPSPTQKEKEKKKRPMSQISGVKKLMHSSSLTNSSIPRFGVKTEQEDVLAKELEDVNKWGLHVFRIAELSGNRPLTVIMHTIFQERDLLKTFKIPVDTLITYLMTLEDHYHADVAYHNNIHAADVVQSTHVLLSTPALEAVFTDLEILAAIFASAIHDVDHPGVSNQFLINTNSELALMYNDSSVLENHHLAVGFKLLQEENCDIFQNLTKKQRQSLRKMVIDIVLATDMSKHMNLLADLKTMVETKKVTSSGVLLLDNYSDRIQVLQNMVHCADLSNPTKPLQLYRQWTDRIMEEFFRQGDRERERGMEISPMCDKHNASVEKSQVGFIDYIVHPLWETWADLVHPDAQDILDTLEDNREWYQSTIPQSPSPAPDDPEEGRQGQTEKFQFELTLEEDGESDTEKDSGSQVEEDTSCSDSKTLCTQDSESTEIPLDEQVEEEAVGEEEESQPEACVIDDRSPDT

Compound	IC50 [1] [nM]	IC50 [2] [nM]
Cc1nc(Nc2ccc(CC(=O)O)cc2)nc(-c2ccc(Cl)s2)n1 [US11401286, Example 22]	> 1000	> 1000
OCCc1ccc(Nc2cc(-c3cccc(Cl)c3)nc3c2CCC3)cn1 [US11401286, Example 90]	> 1000	> 1000
CCc1c(C)nc(-c2ccc(Cl)s2)nc1Nc1ccc(Cn2nccn2)cc1 [US11401286, Example 300]		< 1000

Now from value to compound:

IC50 [1] [nM]	IC50 [2] [nM]	Compound
> 1000	< 1000	N#CC1CCC(c2cc(Nc3ccc(CC(N)=O)cc3)c3c(n2)CCC3)C1 (centres undefined) [US11401286, Example 138]
> 1000	< 1000	NC(=O)Cc1ccc(Nc2cc(C3CCCC3)nc3c2CCC3)cc1 [US11401286, Example 247]
